A melting point compilation (Tetko et al.; mined from patent text by program, amines drawn as free bases though some values may be those of a salt)

`CNC(=O)NC(=O)C(CC1CCCC1OC1CCCCO1)c1ccc(Cl)c(Cl)c1` (stereo unspecified) gave a melting point of 68 to 70 °C. `N#Cc1cnn(-c2c(Cl)cc(Cl)cc2Cl)c1N` showed a melting point of 208 to 210 °C. For `Cn1cnc([N+](=O)[O-])c1NCCN1CCC(Nc2nc3cccnc3n2Cc2ccc(F)cc2)CC1`, the melting point was 199 °C. Molecule `O=C(Nc1cccc(F)c1)C1C(=O)Sc2ccccc21` (stereo unspecified) has a melting point of 169 to 171 °C. In the case of `COc1ccc(N2Cc3cnc(Nc4ccccc4)nc3N([C@@H](C)CO)C2=O)c(F)c1`, the melting point is reported as 188 to 198 °C. `O=C(O)c1ccc(F)cc1NC(=O)C(F)(F)F` gave a melting point of 166 to 168 °C. `O=C1c2ccccc2C(=O)N1CCN1CCC(=C(c2ccccc2)c2ccccc2)CC1` gave a melting point of 106 to 108 °C. In the case of `CN1CCN(Cc2cnc(Nc3cc(-c4cccc(-n5ncc6cc(C(C)(C)C)cc(F)c6c5=O)c4CO)nn(C)c3=O)cn2)CC1`, the melting point is reported as 215 to 218 °C. Work on `CCCCCCCCCCCCCCCCCCNC(=O)OCC(CNS(=O)(=O)CCCCl)OC(=O)NC` (stereo unspecified) yielded a melting point of 102 to 104 °C. In the case of `O=C1OCC(c2ccc([N+](=O)[O-])cc2)C1CSCc1ccccc1` (stereo unspecified), the melting point is reported as 90 to 91 °C. In the case of `Cc1cnc2c(-c3nc[nH]n3)c(Cl)ccc2c1`, the melting point is reported as 274 to 276 °C. Molecule `CCOC(=O)c1cn(CC)c2oc(CN3CCOCC3)cc2c1=O` has a melting point of 229 to 231 °C. With `CC(C)(C)c1cc(CN2CCN(c3ccc([N+](=O)[O-])cc3)CC2)cc(C(C)(C)C)c1O` the melting point was 178 °C. `C[C@H](NC(=O)OCc1ccccc1)C(=O)N[C@@H](Cc1ccccc1)C(=O)O` gave a melting point of 121 to 122 °C. Molecule `Cn1ccc2c(NC(=O)c3ccccc3O)cccc21` has a melting point of 211 °C. `COC(=O)Cc1c(C)ncnc1Oc1cccc(-c2ccccc2)c1` showed a melting point of 113 to 115 °C. In the case of `CCc1cn2c(=O)c(C(=O)O)cnc2c2ccccc12`, the melting point is reported as 221 to 223 °C. In the case of `CC(C)(CO)OCc1nn(Cc2ccccc2)c2ccccc12`, the melting point is reported as 52 to 53 °C. For `S=P1(c2ccccc2)CCCC1`, the melting point was 74 °C. For `CCN(CC)Cc1ccc(CN2C(=O)COc3c(C)cc(C=C4SC(=S)NC4=O)cc32)cc1`, the melting point was 250 to 252 °C. `CCCCCCCCCCOc1ccc(CO)cc1` gave a melting point of 54 to 55 °C. With `O=C1NCCCN1C1CCN(CC(O)COc2ccccc2Cl)CC1` (stereo unspecified) the melting point was 150 to 153 °C. Work on `CCOC(=O)C(=CNc1ccccc1OC)C(C)=O` yielded a melting point of 103 to 105 °C. `CCCCCCC(Oc1ccc(NC(=O)NC(=O)c2c(Cl)cccc2Cl)cc1)c1ccccc1` (stereo unspecified) showed a melting point of 146 to 149 °C. In the case of `CC(=O)c1oc2ccc(C)cc2c1C`, the melting point is reported as 66.3 to 66.5 °C. `CCc1cccc(CC)c1NC(=O)C(Cc1ccccc1)NC(C)=O` (stereo unspecified) showed a melting point of 205 to 206 °C. `Cc1c(C(=O)c2ccccc2F)n(N2C(=O)c3ccccc3C2=O)c2ccccc12` gave a melting point of 197 to 199 °C. For `COc1ccc(-c2ccc(C(=O)Nc3cc4ncc(CN5CCCC5)cc4cc3C)c(F)c2)cc1`, the melting point was 187 to 190 °C. With `Brc1ccc2c(c1)C(c1ccccn1)=CCc1nncn1-2` the melting point was 219 °C. With `CC(=O)Nc1cc(N(CCO)CCO)ccc1N=Nc1snc(C)c1C#N` the melting point was 188 to 189 °C. For `COC(=O)c1cc(C(=O)c2ncc3ccc(NC(=O)OC(C)(C)C)cn23)ccc1[N+](=O)[O-]`, the melting point was 182 °C. `FC(F)(F)c1cccc2nc3c4ccccc4c4ccccc4c3nc12` gave a melting point of 195 to 196 °C. Work on `O=C(Cl)N1CC(Sc2ccc(Cl)cc2)C1` yielded a melting point of 47 to 48 °C. For `CC(c1ccccc1)N1Cc2cncn2C(c2ccc(Br)cc2)C1=O` (single isomer, unassigned; (+)), the melting point was 147 to 148 °C. `Cc1cc(C)n(C(c2ccccc2)(c2ccccc2)c2ccccc2Cl)n1` showed a melting point of 195 to 197 °C. Molecule `c1cc(-c2ccncn2)cc(-n2cnc3cc(-c4ccon4)ccc32)c1` has a melting point of 214 to 215 °C. For `COc1ccccc1OCC1NC(C)(C)C(C(=O)O)S1` (stereo unspecified), the melting point was 136 to 138 °C. `CCc1c(C(=O)O)nn(-c2ccc(Cl)cc2Cl)c1-c1ccc(Br)cc1` showed a melting point of 218 °C. With `COc1cccc(COc2ccc(S(=O)(=O)c3ccc(C)nc3Nc3c(C)cc(C)cc3C)cc2)c1` the melting point was 124 to 126 °C. With `C=CCC(O)CCCCCCCCCCCCCCCCC` (stereo unspecified) the melting point was 48 to 50.5 °C. With `CN(c1cccc2cc(C(N)=O)[nH]c12)S(=O)(=O)c1nccs1` the melting point was 220 to 221 °C. `Cc1ccc(S(=O)(=O)OC[C@@H]2COc3ccc4scc(Cl)c4c3O2)cc1` gave a melting point of 169 to 170 °C. Molecule `COc1cc2c(cc1Nc1ncc(Cl)c(Nc3ccccc3S(=O)(=O)N(C)C)n1)CCN(CC(C)(C)O)CC2` has a melting point of 188 to 189 °C. `Cc1ccc(C(Cl)=NO)cc1` gave a melting point of 69 to 71 °C. Molecule `CN1CCN(C(=O)c2ccc3n2Cc2ccc(C(=O)O)cc2N(C(=O)c2ccc(C4CCCCC4)cc2)C3)CC1` has a melting point of 195 to 210 °C. For `CCCCCCCCCCCCCCCSCCCO`, the melting point was 36 to 39 °C. Work on `COc1ccc(C(=O)c2ccc([N+](=O)[O-])cc2)cc1OC` yielded a melting point of 160 to 162 °C. With `COc1ccc(COc2c(C)c(C)c3c(c2C)C(c2ccc(N4CCOCC4)cc2)C(C)(C)O3)cc1` (stereo unspecified) the melting point was 110 to 112 °C. In the case of `CNC(=O)c1ccc(C(=O)OC)cc1[N+](=O)[O-]`, the melting point is reported as 155 °C. With `Cc1cc(NC(=O)C(=O)N2C(C)CCCC2C)cc(C)c1S(=O)(=O)C[N+](=O)[O-]` (stereo unspecified) the melting point was 192 to 193 °C. `CC12CCC(OC(=O)COc3ccccc3)CC1=CCC1C2CCC2(C)C(=NO)CCC12` (stereo unspecified) gave a melting point of 118 to 122 °C. `CCCc1nc(Cl)c(-c2ccc(C)cc2)c(Cl)n1` showed a melting point of 91 to 93 °C. Work on `CC(=O)NC(C)COC1CCC(c2nc3ccc(OCC4CC4)cc3o2)CC1` (stereo unspecified) yielded a melting point of 131 to 132 °C. `COc1ccc2[nH]c(C)c(-c3nc(OC)cc(OC)n3)c2c1` gave a melting point of 182 to 184 °C. `CC(C)(C)OC(=O)N1CCN(c2ccc(N3CCN(Cc4ccccc4)CC3)cc2)CC1` gave a melting point of 132 to 133 °C. Molecule `C=Cc1ccc(ON2C(=O)c3ccccc3C2=O)cc1` has a melting point of 129 to 131 °C. In the case of `Cc1ccc(S(=O)(=O)N(F)CC(C)(C)C)cc1`, the melting point is reported as 58 to 62.5 °C. Molecule `COc1ccccc1OCCCl` has a melting point of 36 to 38 °C. `CCCCCCCCCCN=C1SC(=CC(=O)O)C(=O)N1CCCCCCCCCC` gave a melting point of 68 to 69 °C. With `CC1CC(N)=C(C#N)C1C` (stereo unspecified) the melting point was 92 to 100 °C. In the case of `C=CCc1cc(CC(=O)NCCCC)ccc1O`, the melting point is reported as 48 to 50 °C. Work on `CCn1cc[nH]c(=O)c1=O` yielded a melting point of 173 to 174 °C. `CCCCN1CC[C@@H](CNC(=O)c2cc(Cl)c(N)c3c2OCCO3)[C@H](O)C1` (relative stereo) gave a melting point of 122 °C. With `COc1cccc(-c2ccc3cc(OC)ccc3c2Oc2ccc(O)cc2)c1` the melting point was 125 to 126 °C. With `O=C(NC1CCCCC1)c1c(O)c2ccccc2[nH]c1=O` the melting point was 221 °C. Molecule `COC(=O)N(C)C1CN(C(=O)Nc2ccc(OC(F)(F)F)cc2)NC1c1ccc(Cl)cc1` (stereo unspecified) has a melting point of 179 to 181 °C. Work on `O=C(c1ccccc1)c1ccc2nc3c(C(=O)O)cccc3nc2c1` yielded a melting point of 236 to 237 °C. `CC(=O)OCC1=C(C(=O)OC(C)(C)C)N2C(=O)C(NC(=O)CC3=CSCCS3)C2SC1` (stereo unspecified) showed a melting point of 80 °C. With `Cc1nc2c(-c3cccc(N4CCN(C)CC4)c3)cnn2c(N)c1-c1ccc(F)cc1` the melting point was 204 to 206 °C. Molecule `CCc1cnc(C2=NC(C)(C(C)C)C(=O)N2)c(C(=O)NCCCC(=O)OC)c1` (stereo unspecified) has a melting point of 132 to 134 °C. Molecule `COc1ccccc1N1CCN(CCCNC(=O)c2cccc3c(=O)c(C)c(C4CCCC4)oc23)CC1` has a melting point of 135 to 137 °C.
